Measured values as given in patent US20230174523A1, “BENZENESULFONAMIDE DERIVATIVES AS TRAP1 MODULATORS AND USES THEREOF” (Amathus Therapeutics, Inc., priority 2020, published 2023).

Tests used:
[1] = target: T1, TRAP1 enzyme (Homo sapiens, UniProt Q12931); experiment: Malachite green phosphate assay of TRAP1 ATPase activity; type: biochemical; conditions: for EC50: TRAP1 ATPase activation, 150 nM Trap1, 20 μM ATP, geometric mean, read-out: Malachite Green Fluor DRC: GeoMean EC50; for Emax: read-out: Malachite Green Fluor DRC: Mean Emax
T1 sequence (Q12931 60-704): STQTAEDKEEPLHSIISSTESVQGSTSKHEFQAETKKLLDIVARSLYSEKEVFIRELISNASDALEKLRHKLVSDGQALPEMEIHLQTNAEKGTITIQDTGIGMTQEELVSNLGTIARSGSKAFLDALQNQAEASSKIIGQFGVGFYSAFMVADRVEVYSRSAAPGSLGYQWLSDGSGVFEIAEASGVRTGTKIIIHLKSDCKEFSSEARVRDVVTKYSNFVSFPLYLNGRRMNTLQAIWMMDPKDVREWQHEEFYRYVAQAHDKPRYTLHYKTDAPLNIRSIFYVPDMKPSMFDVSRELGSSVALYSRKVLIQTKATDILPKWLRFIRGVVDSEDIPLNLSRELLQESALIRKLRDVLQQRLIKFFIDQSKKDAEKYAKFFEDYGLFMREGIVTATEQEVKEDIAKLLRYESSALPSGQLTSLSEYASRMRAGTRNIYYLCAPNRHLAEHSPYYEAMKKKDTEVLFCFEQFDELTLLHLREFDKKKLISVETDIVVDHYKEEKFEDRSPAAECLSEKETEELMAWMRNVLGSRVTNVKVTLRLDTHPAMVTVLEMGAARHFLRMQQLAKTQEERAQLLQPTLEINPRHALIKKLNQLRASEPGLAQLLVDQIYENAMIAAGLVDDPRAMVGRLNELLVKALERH
Procedure: The Potency of test compounds to modulate the ATPase activity of TRAP1 enzyme was evaluated using malachite green phosphatase assay. The assay is based on quantification of the green complex formed between Malachite Green, molybdate and inorganic phosphate generated in the phosphatase reaction. Assays were performed using a Malachite Green assay kit. All the assays were carried out in a 96-well transparent plate. The buffer used was 50 mM HEPES (pH 7.5), 20 mM KCl, 4 mM MgCl2 and 0.05% BSA. 150 nM Trap1 enzyme was incubated with various concentrations of the test compound (0.78 μM-100 μM) at 37° C. for 30 mins. 20 μM ATP was added to each well (except blank wells) to start the reaction and the plate was then incubated at 37° C. for 180 mins. 10 μl of the reaction volume of each sample was then transferred to a white 384-well proxiplate in quadruplets. 2.5 μl of Malachite Green reagent was added to all the wells and the plate was equilibrated for 15 mins. The reaction was stopped by adding 12% H2SO4 and the plate was read for fluorescence at 620 nm (λex=573 nm). The amount of phosphate released was estimated from a phosphate standard curve generated at the same experimental conditions. Emax (Maximal percent activation) and EC50 (concentration of test compound for half maximal activation) were estimated by fitting the dose response data to a sigmoidal curve fitting equation using Graphpad Prism software V.7.0.

[2] = target: T1, TRAP1 enzyme; experiment: ADP Glo assay of TRAP1 ATPase activity; type: biochemical; conditions: for EC50: TRAP1 ATPase activation, 150 nM Trap1, 20 μM ATP, geometric mean, read-out: ADP GLO DRC: GeoMean EC50; for Emax: read-out: ADP GLO DRC: Mean Emax
In short: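 150 nM TRAP1 preincubated with compound (0.79–100 μM) 30 min at 37° C in Pipes pH 7.5 buffer (0.05 mM MgCl2, 40 mM KCl), then 20 μM ATP added for 60 min at 37° C. ADP quantified by ADP-Glo luminescence against ATP/ADP standard curve. Emax and EC50 from sigmoidal fit.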

Structure (SMILES): COc1ccc(NC(=O)c2cnc(C(F)(F)F)[nH]2)cc1S(=O)(=O)Nc1ccc(-c2ccccc2)cc1 [Compound 353]
- EC50 [1]: 20 to 100 µM
- Emax [1]: 200 to 300%

Structure (SMILES): COc1ccc(NC(=O)c2ncco2)cc1S(=O)(=O)N(CCCCCCO)c1ccc(Br)cc1 [Compound 255]
- EC50 [1]: 10 to 20 µM
- Emax [1]: 160 to 199%

Structure (SMILES): COc1ccc(NC(=O)c2cnc(C(F)(F)F)[nH]2)cc1S(=O)(=O)N(CCCCCN1CCOCC1)c1ccc(Br)cc1 [Compound 433]
- EC50 [1]: 10 to 20 µM
- Emax [1]: 123 to 159%

Structure (SMILES): O=C(Nc1cccc(S(=O)(=O)Nc2ccc(Br)cc2)c1)c1cnc(C(F)(F)F)[nH]1 [Compound 228]
- EC50 [1]: 10 to 20 µM
- Emax [1]: 200 to 300%

Structure (SMILES): Cc1ncoc1C(=O)Nc1cccc(S(=O)(=O)N2CCCc3cc(Cl)ccc32)c1 [Compound 429]
- EC50 [1]: 10 to 20 µM
- Emax [1]: 200 to 300%

Structure (SMILES): COc1ccc(NC(=O)c2nccs2)cc1S(=O)(=O)Nc1ccc(Cl)cc1 [Compound 349]
- EC50 [1]: 20 to 100 µM
- Emax [1]: 200 to 300%

Structure (SMILES): Cc1ccc(NS(=O)(=O)c2cc(NC(=O)c3ncc(-c4ccccc4)o3)ccc2CC(=O)O)cc1 [Compound 541]
- EC50 [1]: 20 to 100 µM
- Emax [1]: 200 to 300%

Structure (SMILES): COc1ccc(NC(=O)c2cnc[nH]2)cc1S(=O)(=O)N(CCOCCOCCOCCN)c1ccc(Br)cc1 [Compound 546]
- EC50 [1]: 20 to 100 µM
- Emax [1]: 160 to 199%

Structure (SMILES): COc1ccc(NC(=O)c2cc(-n3ccnc3)ccn2)cc1S(=O)(=O)Nc1c(C)cccc1C [Compound 1030]
- EC50 [2]: 10 to 20 µM
- Emax [2]: 200 to 300%

Structure (SMILES): COc1ccc(NC(=O)c2cccc3c2OC(C)(C)CC3)cc1S(=O)(=O)Nc1c(C)cccc1C [Compound 1040]
- EC50 [2]: < 10 µM
- Emax [2]: 200 to 300%

Structure (SMILES): CC(C)(C)OC(=O)c1ccccc1C(=O)Nc1ccc(F)c(S(=O)(=O)Nc2ccc(Cl)cc2)c1 [Compound 694]
- EC50 [2]: 20 to 100 µM
- Emax [2]: 123 to 159%

Structure (SMILES): COc1ccc(NC(=O)c2ncc(-c3ccccc3)o2)cc1S(=O)(=O)Nc1c(C(C)C)ccnc1C(C)C [Compound 1809]
- EC50 [2]: < 10 µM
- Emax [2]: 160 to 199%

Structure (SMILES): Cc1ccc(Sc2ncccc2C(=O)Nc2ccc(F)c(S(=O)(=O)Nc3ccc(Cl)cc3)c2)cc1 [Compound 764]
- EC50 [2]: 10 to 20 µM
- Emax [2]: 123 to 159%

Structure (SMILES): COc1ccc(NC(=O)c2ccc3cnn(C)c3c2)cc1S(=O)(=O)Nc1c(C)cccc1C [Compound 1370]
- EC50 [2]: 20 to 100 µM
- Emax [2]: > 300%

Structure (SMILES): COc1ccc(NC(=O)c2ocnc2C(C)C)cc1S(=O)(=O)Nc1ccc(Cl)cc1 [Compound 596]
- EC50 [2]: 10 to 20 µM
- Emax [2]: 160 to 199%

Structure (SMILES): COc1ccc(NC(=O)c2nccs2)cc1S(=O)(=O)Nc1c(C)cccc1C [Compound 1171]
- EC50 [2]: 20 to 100 µM
- Emax [2]: 160 to 199%

Structure (SMILES): COc1ccc(NC(=O)c2ccnc(Cl)c2C)cc1S(=O)(=O)Nc1c(C)cccc1C [Compound 1067]
- EC50 [2]: 20 to 100 µM
- Emax [2]: 160 to 199%

Structure (SMILES): COc1ccc(NC(=O)c2coc(-c3cc(F)c(F)c(F)c3)n2)cc1S(=O)(=O)Nc1c(C)csc1C [Compound 2415]
- EC50 [2]: < 10 µM
- Emax [2]: 123 to 159%

Structure (SMILES): O=C(c1ccccc1)c1cccnc1C(=O)Nc1ccc(F)c(S(=O)(=O)Nc2ccc(Cl)cc2)c1 [Compound 836]
- EC50 [2]: 20 to 100 µM
- Emax [2]: 200 to 300%

Structure (SMILES): CCS(=O)(=O)c1ccc(OC)c(C(=O)Nc2ccc(F)c(S(=O)(=O)Nc3ccc(Cl)cc3)c2)c1 [Compound 822]
- EC50 [2]: 10 to 20 µM
- Emax [2]: 160 to 199%

Structure (SMILES): COc1ccc(NC(=O)c2cnn(-c3ccccc3)c2)cc1S(=O)(=O)Nc1c(C)cccc1C [Compound 1292]
- EC50 [2]: 10 to 20 µM
- Emax [2]: 200 to 300%

Structure (SMILES): COc1ccc(NC(=O)c2ccccc2Oc2ccccc2)cc1S(=O)(=O)Nc1c(C)cccc1C [Compound 1234]
- EC50 [2]: < 10 µM
- Emax [2]: 160 to 199%

Structure (SMILES): COc1ccc(NC(=O)c2csc3c2CCCC3)cc1S(=O)(=O)Nc1c(C)cccc1C [Compound 1144]
- EC50 [2]: < 10 µM
- Emax [2]: 160 to 199%

Structure (SMILES): COc1ccc(NC(=O)c2cc3ccccc3[n+](C)c2)cc1S(=O)(=O)Nc1c(C)cccc1C [Compound 1356, 3-((3-(N-(2,6-dimethylphenyl)sulfamoyl)-4-methoxyphenyl)carbamoyl)-1-methylquinolin-1-ium]
- EC50 [2]: 20 to 100 µM
- Emax [2]: 160 to 199%

Structure (SMILES): COc1ccc(NC(=O)c2ccc3nc(C)sc3c2)cc1S(=O)(=O)Nc1c(C)cccc1C [Compound 1231]
- EC50 [2]: 10 to 20 µM
- Emax [2]: > 300%

Structure (SMILES): N#Cc1ccc(C(=O)Nc2ccc(F)c(S(=O)(=O)Nc3ccc(Cl)cc3)c2)c(C(F)(F)F)n1 [Compound 827]
- EC50 [2]: 20 to 100 µM
- Emax [2]: 123 to 159%

Structure (SMILES): COc1ccc(NC(=O)c2ccccc2C2CC2)cc1S(=O)(=O)Nc1c(C)cccc1C [Compound 1028]
- EC50 [2]: 10 to 20 µM
- Emax [2]: 160 to 199%

Structure (SMILES): Cn1c(=O)n(C)c2cc(C(=O)Nc3ccc(F)c(S(=O)(=O)Nc4ccc(Cl)cc4)c3)ccc21 [Compound 1261]
- EC50 [2]: 20 to 100 µM
- Emax [2]: 123 to 159%

Structure (SMILES): COc1ccc(NC(=O)c2cccc(-n3ccnc3)c2)cc1S(=O)(=O)Nc1c(C)cccc1C [Compound 1232]
- EC50 [2]: 10 to 20 µM
- Emax [2]: 200 to 300%

Structure (SMILES): COc1ccc(NC(=O)c2cnn3cccnc23)cc1S(=O)(=O)Nc1c(C)cccc1C [Compound 1147]
- EC50 [2]: 20 to 100 µM
- Emax [2]: 200 to 300%

Structure (SMILES): COc1ccc(NC(=O)c2ccc3c(c2)CCCO3)cc1S(=O)(=O)Nc1c(C)cccc1C [Compound 1121]
- EC50 [2]: < 10 µM
- Emax [2]: 160 to 199%

Structure (SMILES): Cc1oc(C)c(C(=O)Nc2ccc(F)c(S(=O)(=O)Nc3ccc(Cl)cc3)c2)c1C [Compound 740]
- EC50 [2]: 10 to 20 µM
- Emax [2]: 123 to 159%

Structure (SMILES): COc1ccc(NC(=O)c2ncn(C(C)C)n2)cc1S(=O)(=O)Nc1c(C)cccc1C [Compound 1069]
- EC50 [2]: 20 to 100 µM
- Emax [2]: 160 to 199%

Structure (SMILES): COc1ccc(NC(=O)c2cccc(-c3cccnc3)c2)cc1S(=O)(=O)Nc1c(C)cccc1C [Compound 1225]
- EC50 [2]: < 10 µM
- Emax [2]: 200 to 300%

Structure (SMILES): COc1ccc(NC(=O)c2cc3c(C)nn(C)c3s2)cc1S(=O)(=O)Nc1c(C)cccc1C [Compound 1252]
- EC50 [2]: < 10 µM
- Emax [2]: 200 to 300%

Structure (SMILES): CCOc1cc(OCC)cc(C(=O)Nc2ccc(OC)c(S(=O)(=O)Nc3c(C)cccc3C)c2)c1 [Compound 1117]
- EC50 [2]: < 10 µM
- Emax [2]: 123 to 159%

Structure (SMILES): COc1ccc(NC(=O)c2ncc(-c3ccccc3)o2)cc1S(=O)(=O)Nc1c(C#N)cccc1C(F)(F)F [Compound 1343, N-(3-(N-(2-cyano-6-(trifluoromethyl)phenyl)sulfamoyl)-4-methoxyphenyl)-5-phenyloxazole-2-carboxamide]
- EC50 [2]: 20 to 100 µM
- Emax [2]: 200 to 300%

Structure (SMILES): CCc1cc(C(=O)Nc2ccc(OC)c(S(=O)(=O)Nc3c(C)cccc3C)c2)cc(C)n1 [Compound 1018]
- EC50 [2]: 10 to 20 µM
- Emax [2]: > 300%

Structure (SMILES): Cn1ncc(C(=O)Nc2ccc(F)c(S(=O)(=O)Nc3ccc(Cl)cc3)c2)c1-n1cccc1 [Compound 817]
- EC50 [2]: 20 to 100 µM
- Emax [2]: 160 to 199%

Structure (SMILES): COc1ccc(NC(=O)c2ccc3c(c2)CCN3C)cc1S(=O)(=O)Nc1c(C)cccc1C [Compound 1008]
- EC50 [2]: 20 to 100 µM
- Emax [2]: 123 to 159%

Structure (SMILES): COc1cc(C#N)cc(C(=O)Nc2ccc(OC)c(S(=O)(=O)Nc3c(C)cccc3C)c2)c1 [Compound 1090]
- EC50 [2]: < 10 µM
- Emax [2]: 160 to 199%

Structure (SMILES): O=C(Nc1ccc(F)c(S(=O)(=O)Nc2ccc(Cl)cc2)c1)c1scnc1C1CC1 [Compound 724]
- EC50 [2]: 10 to 20 µM
- Emax [2]: 160 to 199%

Structure (SMILES): COc1ccc(NC(=O)c2cc(C#N)ccc2Br)cc1S(=O)(=O)Nc1c(C)cccc1C [Compound 1141]
- EC50 [2]: 20 to 100 µM
- Emax [2]: 160 to 199%

Structure (SMILES): COc1ccc(NC(=O)c2ccc(Cn3cc(Cl)cn3)cc2)cc1S(=O)(=O)Nc1c(C)cccc1C [Compound 1237]
- EC50 [2]: < 10 µM
- Emax [2]: 160 to 199%

Structure (SMILES): COc1ccc(NC(=O)c2ncc(-c3ccccc3)o2)cc1S(=O)(=O)Nc1cc2ccccc2nn1 [Compound 1825]
- EC50 [2]: 20 to 100 µM
- Emax [2]: 160 to 199%

Structure (SMILES): COc1ccc(NC(=O)c2ccnc(-c3ccccc3)c2)cc1S(=O)(=O)Nc1c(C)cccc1C [Compound 1285]
- EC50 [2]: < 10 µM
- Emax [2]: 200 to 300%
